# Patent US9717727B2, “Methods of treating and preventing leukemia and other cancers of the blood and bone” (The Trustees of Columbia University in the City of New York, priority 2011, dated 2017)
# What was measured:
# serum serotonin = assay: Serum serotonin levels by ELISA, EL4 study (Example 9); format: in vivo, mice; settings: leukemic and non-leukemic groups; LP-533401 25 or 200 mg/kg/day oral
# Procedure: Mice were treated orally with LP-533401 (25 or 200 mg per kg of body weight per day) or vehicle. Treatments started 15 days before malignant cell injections in all sets of experiments, and continued for the indicated periods of time. LP-533401 was dissolved in polyethylene glycol (PEG) and 5% dextrose or 2.5% glucose (Sigma), and given daily by oral gavage. Mice treated with vehicle were administered, in the same way as LP533401, a solution of PEG and 5% dextrose or 2.5% glucose, daily, by oral gavage. For measurements of serum serotonin levels, mice were briefly exposed to Isoflurane (Baxter) for 30 seconds and blood was collected by cardiac puncture. Similar volumes of blood were collected from different animals for consistency in the clotting times. Serum collection from all mice was done between 9:00 am and 12:00 pm. Blood was allowed to clot on ice for 5 minutes before centrifugation at maximum speed at 4° C. for 10 minutes. The serum supernatant was removed, snap frozen and stored at −80° C. for further analysis. Serum serotonin levels were quantified by ELISA (Serotonin kit, Fitzgerald) according to manufacturer's instructions.
# EL4 cells [1] = assay: EL4 leukemia mouse model, all mice sacrificed at day 15 (Example 10); format: in vivo
# Procedure: Mice were sacrificed at pre-determined time points as specified before or upon signs of illness. Each animal was weighed before blood was sampled, and visually examined for tumor development. Spleens were isolated and weighed. Spleens and tissue samples from liver were fixed in 10% neutral formalin solution for 48 hours. Osseous samples (thoracic spine, sternum, pelvis, and stifle joint) were decalcified in Decalcifier System I (Leica Microsystems, Inc.) for 48 h after fixation. All tissues were processed by routine methods and embedded in paraffin Sections of 4 or 5 μm were stained with hematoxylin and eosin (H&E) according to standard procedures. Luciferase intensity was measured by plating 4.5 million bone marrow cells into 6-well plates. Luciferin was added at a final concentration of 150 μg/mL and luciferase activity was measured at a luminometer. Mice were treated orally with LP-533401 (25 or 200 mg per kg of body weight per day) or vehicle. Treatments started 15 days before malignant cell injections in all sets of experiments, and continued for the indicated periods of time. LP-533401 was dissolved in polyethylene glycol (PEG) and 5% dextrose or 2.5% glucose (Sigma), and given daily by oral gavage. Mice treated with vehicle were administered, in the same way as LP533401, a solution of PEG and 5% dextrose or 2.5% glucose, daily, by oral gavage. The same mice and techniques used in Example 9 were used in this Example, except all of the mice were sacrificed at day 15 following EL4 cell injection
# [2] = system: hematopoietic compartment; assay: Flow cytometry of hematopoietic cell populations in bone marrow (Example 11); format: in vivo, mice
# Procedure: Freshly isolated bone marrow cells or spleen cells were resuspended in flow-staining buffer (PBS plus 2% FBS) and the primary conjugated antibodies were added. After 30 minutes incubation at 4° C., the cells were then washed twice before flow cytometry analysis. The following antibodies conjugated with fluorescein isothiocyanate (FITC), Allophycocyanin (APC) phycoerythrin (PE), PE-Cy7, APC-CY7, Pacific Blue, and Alexa 700 were used: Lineage cocktail (B220, CD19, IL-7R chain, CD3, DX5, Gr-1, Ter119, CD71 and CD41), B220 (6B2), CD19 (1D3), IgM (II/41), CD3 (KT31.1), CD4 (GK1.5), CD8 (53-6.7), Gr-1 (8C5), Mac1/CD11b (M1/70), Ter119, CD71 (C2), c-Kit (2B8), Sca-1 (E13-161-7), CD34 (RAM34), FcRII/III (2.4G2) or CD135/Flt-3 (all from Becton Dickinson, San Diego, Calif.).
# The cell cycle analysis of LSK cells was determined by staining for 30 min at 37° C. with Hoechst 33342 (Molecular Probes) and pyronin Y (Sigma). Seven-color flow cytometry acquisition was performed using a LSR II flow cytometer (Becton Dickinson) and analysis using FLO-JO software (Treestar, Inc). Cells were gated for size, shape and granularity using forward and side scatter parameters. The positive populations were identified as cells that expressed specific levels of fluorescence activity above the nonspecific auto fluorescence of the isotype control. Nonspecific binding was reduced by preincubation with unconjugated anti-FcRII/III (2.4G2). For Flow sorting EL4-GFP-Luc cells were resuspended in flow staining buffer, and flow sorting was performed using FACSAria (BD). Sorted GFP positive cells were then subsequently cultured for 12 hours and injected into the mice.
# The methods used in Example 8 to measure the various cell types were used.
# Mice treated as described in Example 9 were examined.
# EL4 cells [3] = assay: Injection of EL4 cells pre-treated with LP-533401 or serotonin into syngeneic mice (Example 13); format: in vivo; settings: cells treated before injection; LP-533401 0.1 to 1-fold serum concentration, serotonin 25 to 100 μM
# Procedure: EL4 cells and WEH-3B cells, as described in Example 2, were treated with either LP-533401 or serotonin LP-533401 treatments were performed at 0.1 to 1-fold the amount equivalent to the LP-533401 serum concentration in mice treated with this compound. Serotonin was given at concentrations ranging from 25 to 100 μM, doses at which it affects the proliferation of cells expressing serotonin receptors (Kode et al. (2012); Yadav et al. (2008) Serafeim et al. (2003)).
# EL4 cells treated with LP-533401 or serotonin were then injected into syngeneic mice as described in Example 2 to monitor leukemia engraftment, as commonly described for evaluating potential direct effects of compounds on leukemia cells (Moellering et al. (2009)).
# bone loss = settings: in vivo; cited from earlier work
structure (smiles),measurement,setting,value
Nc1nc(OC(c2ccc(-c3cccc(F)c3)cc2)C(F)(F)F)cc(-c2ccc(C[C@H](N)C(=O)O)cc2)n1 (stereo partly shown) [LP-533401],decrease in serum serotonin levels compared to vehicle-treated animals,serum serotonin,30%
same,leukemic infiltration in the marrow (histology),EL4 cells [1]; day 15,reduced leukemic infiltration
same,leukemic mice with 20 to 40% blasts in the bone marrow,EL4 cells [1]; day 15,40%
same,leukemic mice with increased megakaryocyte number,EL4 cells [1]; day 15,20%
same,leukemic mice with less than 20% of blasts in the bone marrow,EL4 cells [1]; day 15,40%
same,leukemic mice with more than 80% blasts in the bone marrow,EL4 cells [1]; day 15,20%
same,"leukemia-induced changes in WBCs, monocytes, neutrophils and lymphocytes","EL4 cells [1]; day 15, leukemic mice",all prevented
same,liver leukemic involvement,"EL4 cells [1]; day 15, leukemic mice",normal or only small size focal infiltrates
same,myeloid hyperplasia,"EL4 cells [1]; day 15, leukemic mice",Mild myeloid hyperplasia
same,prevalence of immature lymphoblastic cells in the blood compared to healthy controls,"EL4 cells [1]; day 15, leukemic mice",did not show an increase
same,EL4 tumor burden,"EL4 cells [1]; day 15, whole body and bone marrow",decreased in whole body and in the bone marrow
same,"leukemia-caused decrease in bone volume, osteoblast numbers and bone formation rate",EL4 cells [1]; day 15 after EL4 injection,ameliorated
same,osteoclast numbers,EL4 cells [1]; day 15 after EL4 injection,Neither injection with EL4 cells nor treatment with LP-533401 affected osteoclast numbers
same,numbers of LSK FLT3+ cells,[2]; healthy and leukemic mice,reduced the numbers
same,B-lymphopoiesis,[2]; leukemic animals,did not affect
same,GMP and CMP populations,[2]; leukemic mice,further suppressed their frequencies
same,LSK FLT3+ lymphoid progenitor cell subset (percentage),[2]; leukemic mice,not affected
same,MEP subsets,[2]; leukemic mice,not affected
same,TER119+ erythroid progenitor cells,[2]; leukemic mice,increased
same,increase in CD3+ cells,[2]; leukemic mice,prevented the increase
same,increase in CD11b+GR1+ myeloid cells,[2]; leukemic mice,limited the increase
same,leukemia-induced increase of LSK cells in the bone marrow,[2]; leukemic mice,hampered
same,leukemia-reduced total bone marrow cellularity,[2]; leukemic mice,not altered
same,CMPs and MEPs,[2]; non-leukemic mice,not affected
same,GMPs and more mature myeloid cells,[2]; non-leukemic mice,decreased
same,LSK cells in the bone marrow compared to wild-type,[2]; non-leukemic mice,decrease
same,Ter119+ erythroid cells,[2]; non-leukemic mice,increased
same,"lymphoid lineage, including B and T cells",[2]; non-leukemic mice,no effect
same,total bone marrow cellularity,[2]; non-leukemic mice,did not affect
same,leukemia outcome (burden and lethality) after injection of pre-treated EL4 cells,EL4 cells [3],neither of the two treatments altered leukemia outcome
same,effect against bone loss,bone loss,effective against bone loss
